Measured values taken from the supplement of paper PMC12137928.
Structures can show the parent of a compound that is named as a salt.

System: HCT116
Conditions: 72 h
How it was run: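 Each well of the 1536-well plates received 250 HCT116 cells, which attached over 5 h. Luminescence was measured with CellTiter-Glo, scaled with vehicle as 0% and positive control as -100%, and pattern-corrected. A four-parameter Hill fit yielded IC50 and maximal efficacy.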

| Structure (SMILES) | IC50 cell viability (ICRF193 0 nM) [µM] | IC50 cell viability (ICRF193 200 nM) [µM] |
| --- | --- | --- |
| CNC(C)(C)Cc1ccccc1 [Mephentermine hemisulfate] | > 45.8 | > 45.8 |
| COC1(O[C@H]2CC[C@H]3[C@@H]4CC[C@H]5C[C@@H]6S[C@@H]6C[C@]5(C)[C@H]4CC[C@]23C)CCCC1 [Mepitiostane (Contains ~15% 3a,4a-Epithio isomer)] | > 45.8 | > 45.8 |
| C[C@H]1C[C@H]2[C@@H]3CCC4=CC(=O)C=C[C@]4(C)[C@H]3C(=O)C[C@]2(C)[C@@]1(O)C(=O)CO [Meprednisone] | > 45.8 | > 45.8 |
| CCC1(c2cccc(O)c2)CCCCN(C)C1 (centres undefined) [Meptazinol hydrochloride] | > 45.8 | > 45.8 |
| O=C([O-])c1ccccc1-c1c2cc(Br)c(=O)cc-2oc2[c]([Hg+])c([O-])c(Br)cc12.[Na+].[Na+].[OH-] [Merbromin] | > 45.8 | > 45.8 |
| C[C@@H](O)[C@H]1C(=O)N2C(C(=O)O)=C(S[C@@H]3CN[C@H](C(=O)N(C)C)C3)[C@H](C)[C@H]12 [Meropenem] | > 45.8 | > 45.8 |
| COC([CH2][Hg+])CNC(=O)c1ccccc1OCC(=O)O.[OH-] (centres undefined) [Mersalyl acid] | > 45.8 | > 45.8 |
| CN1CCCCC1CCN1c2ccccc2Sc2ccc([S+](C)[O-])cc21 (centres undefined) [Mesoridazine] | > 45.8 | > 45.8 |
| C#C[C@]1(O)CC[C@H]2[C@@H]3CCc4cc(OC)ccc4[C@H]3CC[C@@]21C [Mestranol] | > 45.8 | > 45.8 |
| CN(C)C(=N)NC(=N)N [Metformin] | > 45.8 | > 45.8 |
| C=C1c2cccc(O)c2C(=O)C2=C(O)[C@]3(O)C(=O)C(C(N)=O)=C(O)[C@@H](N(C)C)[C@@H]3[C@@H](O)[C@H]12 [Methacycline hydrochloride] | > 45.8 | > 45.8 |
| CCC1(CC)C(=O)NC(=O)N(C)C1=O [Metharbital] | > 45.8 | > 45.8 |
| C1N2CN3CN1CN(C2)C3 [Methenamine] | > 45.8 | > 45.8 |
| CC(=O)O[C@H]1CC[C@H]2[C@@H]3CC[C@H]4CC(=O)C=C(C)[C@]4(C)[C@H]3CC[C@]12C [Methenolone (acetate)] | > 45.8 | > 45.8 |
| CCCCCCC(=O)O[C@H]1CC[C@H]2[C@@H]3CC[C@H]4CC(=O)C=C(C)[C@]4(C)[C@H]3CC[C@]12C [Methenolone enanthate] | > 45.8 | > 45.8 |
| CC[C@@H](CO)NC(=O)[C@@H]1C=C2c3cccc4[nH]cc(c34)C[C@H]2N(C)C1 [Methergine] | > 45.8 | > 45.8 |
| COc1ccc(OC)c(C(O)C(C)N)c1 (centres undefined) [Methoxamine hydrochloride] | > 45.8 | > 45.8 |

| Structure (SMILES) | IC50 cell viability (ICRF193 0 nM) [µM] | IC50 cell viability (ICRF193 200 nM) [µM] |
| --- | --- | --- |
| COC(F)(F)C(Cl)Cl [Methoxyflurane] | > 45.8 | > 45.8 |
| CNC(C)Cc1ccccc1OC (centres undefined) [Methoxyphenamine] | > 45.8 | > 45.8 |
| CN1C(CCl)Nc2cc(Cl)c(S(N)(=O)=O)cc2S1(=O)=O (centres undefined) [Methyclothiazide] | > 45.8 | > 45.8 |
| C[N+]1(C)[C@@H]2CC[C@H]1C[C@@H](OC(=O)C(CO)c1ccccc1)C2 (some centres undefined) [Methylatropine nitrate] | > 45.8 | > 45.8 |
| C[N@+]1(CC2CC2)CC[C@]23c4c5ccc(O)c4O[C@H]2C(=O)CC[C@@]3(O)[C@H]1C5 [Methylnaltrexone Bromide] | > 45.8 | > 45.8 |
| CCC(=O)O[C@]1(C(=O)COC(C)=O)CC[C@H]2[C@@H]3C[C@H](C)C4=CC(=O)C=C[C@]4(C)[C@H]3[C@@H](O)C[C@@]21C [Methylprednisolone aceponate] | > 45.8 | > 45.8 |
| CC(=O)OCC(=O)[C@@]1(O)CC[C@H]2[C@@H]3C[C@H](C)C4=CC(=O)C=C[C@]4(C)[C@H]3[C@@H](O)C[C@@]21C [Methylprednisolone acetate] | > 45.8 | > 45.8 |
| C[C@H]1C[C@@H]2[C@H]([C@@H](O)C[C@@]3(C)[C@H]2CC[C@]3(O)C(=O)CO)[C@@]2(C)C=CC(=O)C=C12 [Methylprednisolone] | > 45.8 | > 45.8 |
| CC[C@@H](CO)NC(=O)[C@@H]1C=C2c3cccc4c3c(cn4C)C[C@H]2N(C)C1 [Methysergide] | > 45.8 | > 45.8 |
| Cc1cc2c(cc1S(N)(=O)=O)S(=O)(=O)CCC2 [Meticrane] | > 45.8 | > 45.8 |
| CC(=O)Oc1c(C)cc(OCC(O)CNC(C)C)c(C)c1C (centres undefined) [Metipranolol] | > 45.8 | > 45.8 |
| COc1ccc2cc1Oc1cc3c(cc1OC)CC[N+](C)(C)[C@H]3Cc1ccc(cc1)Oc1c(OC)c(OC)cc3c1[C@@H](C2)[N+](C)(C)CC3 [Metocurine iodide] | > 45.8 | > 45.8 |
| COC(=O)c1cncn1C(C)c1ccccc1 (centres undefined) [Metomidate hydrochloride] | > 45.8 | > 45.8 |
| CC(=O)Nc1c(I)c(C(=O)N[C@H]2C(O)O[C@H](CO)[C@@H](O)[C@@H]2O)c(I)c(N(C)C(C)=O)c1I (some centres undefined) [Metrizamide] | > 45.8 | > 45.8 |
| CC1COC2(c3ccccc3Cl)c3cc(Cl)ccc3NC(=O)CN12 (centres undefined) [Mexazolam] | > 45.8 | > 45.8 |
| CC1(C)S[C@@H]2[C@H](NC(=O)[C@H](NC(=O)N3CCN(S(C)(=O)=O)C3=O)c3ccccc3)C(=O)N2[C@H]1C(=O)O [Mezlocillin Sodium] | > 45.8 | > 45.8 |
| C[C@@H]1CC2=CC(=O)CC[C@@H]2[C@H]2CC[C@@]3(C)[C@@H](CC[C@]3(C)O)[C@@H]21 [Mibolerone] | > 45.8 | > 45.8 |

The remaining lines, values ahead:

| IC50 cell viability (ICRF193 0 nM) [µM] | IC50 cell viability (ICRF193 200 nM) [µM] | Structure (SMILES) |
| --- | --- | --- |
| > 45.8 | > 45.8 | Cc1ccccc1OCC(O)CO (centres undefined) [Mephenesin] |
| > 45.8 | > 45.8 | Cc1ccc2c(n1)Oc1ccc(C(C)C(=O)OCC(=O)N(C)C)cc1C2 (centres undefined) [Mepranoprofen arbamel] |
| > 45.8 | > 45.8 | CCCNC(C)(C)COC(=O)c1ccccc1 [Meprylcaine hydrochloride] |
| > 45.8 | > 45.8 | C[C@H](N)[C@H](O)c1cccc(O)c1 [Metaraminol bitartrate] |
| > 45.8 | > 45.8 | Cc1cc(C)cc(OCC2CNC(=O)O2)c1 (centres undefined) [Metaxalone] |
| > 45.8 | > 45.8 | CC(=O)OC(C)C[N+](C)(C)C (centres undefined) [Methacholine chloride] |
| > 45.8 | > 45.8 | CC[N+](C)(CC)CCOC(=O)C1c2ccccc2Oc2ccccc21 [Methantheline bromide] |
| > 45.8 | > 45.8 | CN(C)CCN(Cc1cccs1)c1ccccn1 [Methapyrilene hydrochloride] |
| > 45.8 | > 45.8 | CC(=O)/N=c1/sc(S(N)(=O)=O)nn1C [Methazolamide] |
| > 45.8 | > 45.8 | COc1cccc(OC)c1C(=O)N[C@@H]1C(=O)N2[C@@H]1SC(C)(C)[C@@H]2C(=O)O [Methicillin sodium hydrate] |
| > 45.8 | > 45.8 | Cn1ccnc1S [Methimazole] |
| > 45.8 | > 45.8 | COc1ccccc1OCC(O)COC(N)=O (centres undefined) [Methocarbamol] |
| > 45.8 | > 45.8 | COc1c2occc2cc2ccc(=O)oc12 [Methoxsalen] |
| > 45.8 | > 45.8 | CN1C(=O)CC(C)(c2ccccc2)C1=O (centres undefined) [Methsuximide] |
| > 45.8 | > 45.8 | COC(=O)CCC(=O)CN [Methyl delta-aminolevulinate hydrochloride] |
| > 45.8 | > 45.8 | COC(=O)c1cccnc1 [Methyl nicotinate] |
| > 45.8 | > 45.8 | COC(=O)c1ccccc1O [Methyl salicylate] |
| > 45.8 | > 45.8 | C[C@](N)(Cc1ccc(O)c(O)c1)C(=O)O [Methyldopa] |
| > 45.8 | > 45.8 | COC(=O)c1ccc(O)cc1 [Methylparaben] |
| > 45.8 | > 45.8 | CC1CCN(CCCC(=O)c2ccc(F)cc2)CC1 [Methylperone] |
| > 45.8 | > 45.8 | CCN(CC)CCNC(=O)c1cc(Cl)c(N)cc1OC [Metoclopramide] |
| > 45.8 | > 45.8 | Cc1ccccc1N1C(=O)c2cc(S(N)(=O)=O)c(Cl)cc2NC1C (centres undefined) [Metolazone] |
| > 45.8 | > 45.8 | COCCc1ccc(OCC(O)CNC(C)C)cc1 (centres undefined) [Metoprolol tartrate] |
| > 45.8 | > 45.8 | CC(=O)Nc1c(I)c(C(=O)O)c(I)c(N(C)C(C)=O)c1I [Metrizoate sodium] |
| > 45.8 | > 45.8 | Cc1ncc([N+](=O)[O-])n1CCO [Metronidazole] |
| > 45.8 | > 45.8 | CC(C)(C(=O)c1cccnc1)c1cccnc1 [Metyrapone] |
| > 45.8 | > 45.8 | C[C@](N)(Cc1ccc(O)cc1)C(=O)O [Metyrosine] |
| > 45.8 | > 45.8 | Cc1cccc(C)c1OCC(C)N (centres undefined) [Mexiletene hydrochloride] |
